From patent publication US5013734A, “Novel esters of phenylalkanoic acid” (Ono Pharmaceutical Co., Ltd., priority 1989, dated 1991)
Structures can show the parent of a compound that is named as a salt.

Legend:
β1 -receptor = experiment: β-blocking activity in vivo: inhibition of isoproterenol-induced tachycardia in anesthetized dogs; conditions: for Inhibitory effect after administration of compounds of the present invention (inhibition of isoproterenol-induced tachycardia), 10 min: 10 min (during infusion); for Inhibitory effect after administration of compounds of the present invention (inhibition of isoproterenol-induced tachycardia), 10 min / Inhibitory effect after administration of compounds of the present invention (inhibition of isoproterenol-induced tachycardia), 20 min / Inhibitory effect after administration of compounds of the present invention (inhibition of isoproterenol-induced tachycardia), 30 min / Inhibitory effect after administration of compounds of the present invention (inhibition of isoproterenol-induced tachycardia), 35 min / Inhibitory effect after administration of compounds of the present invention (inhibition of isoproterenol-induced tachycardia), 40 min / Inhibitory effect after administration of compounds of the present invention (inhibition of isoproterenol-induced tachycardia), 50 min / Inhibitory effect after administration of compounds of the present invention (inhibition of isoproterenol-induced tachycardia), 60 min: 10 μg/kg/min iv infusion for 30 minutes; for Inhibitory effect after administration of compounds of the present invention (inhibition of isoproterenol-induced tachycardia), 20 min: 20 min (during infusion); for Inhibitory effect after administration of compounds of the present invention (inhibition of isoproterenol-induced tachycardia), 30 min: 30 min (end of infusion); for Inhibitory effect after administration of compounds of the present invention (inhibition of isoproterenol-induced tachycardia), 35 min: 35 min (after infusion); for Inhibitory effect after administration of compounds of the present invention (inhibition of isoproterenol-induced tachycardia), 40 min: 40 min (after infusion); for Inhibitory effect after administration of compounds of the present invention (inhibition of isoproterenol-induced tachycardia), 50 min: 50 min (after infusion); for Inhibitory effect after administration of compounds of the present invention (inhibition of isoproterenol-induced tachycardia), 60 min: 60 min (after infusion); for Duration of action: time required to decrease the inhibition percent 30 minutes after administration to half, 10 μg/kg/min iv infusion
Protocol: β-blocking activity of the compounds of the present invention in vivo
Dogs were anesthetized with sodium barbital (300 mg/kg, ip). A femoral artery and both femoral veins were cannulated. Blood pressure was measured with a pressure transducer. Heart rate was measured from the blood pressure signal using a cardiotachometer. The β-blocking activity was assessed by the inhibition of isoproterenol-induced tachycardia. Isoproterenol was administered intravenously (0.1~0.3 μg/kg) at 10 minutes intervals. When a regular tachycardia induced by isoproterenol was given, the compound of the present invention was administered (10 μg/kg/min, iv infusion) for 30 minutes. Isoproterenol was given repeatedly during and following infusion of a test compound. The inhibitory effects of the compounds of the present invention on tachycardia were calculated.
Inhibition (%)=((ΔRO-ΔRa)/ΔRO)×100
ΔRO: the increment of heart rate by isoproterenol before infusion of the compound of the present invention
ΔRa: the increment of heart rate by isoproterenol during and after infusion of the compound of the present invention

β-receptor (trachea) = target: T1, β-receptor (trachea) (Cavia porcellus, UniProt Q8K4Z4); experiment: Cardio selectivity of β-receptor blocking effect in vitro: isolated trachea, isoproterenol concentration-response; assay type: cell-based, guinea pig; conditions: against isoproterenol (10^-10 M to 10^-4 M), read-out: pA2 value trachea (converted)
T1 construct: Trachea was cut into zigzag strip and connected to a force transducer; from tissue; host or cells: isolated guinea pig tracheal zigzag strip
T1 sequence (Q8K4Z4 whole entry): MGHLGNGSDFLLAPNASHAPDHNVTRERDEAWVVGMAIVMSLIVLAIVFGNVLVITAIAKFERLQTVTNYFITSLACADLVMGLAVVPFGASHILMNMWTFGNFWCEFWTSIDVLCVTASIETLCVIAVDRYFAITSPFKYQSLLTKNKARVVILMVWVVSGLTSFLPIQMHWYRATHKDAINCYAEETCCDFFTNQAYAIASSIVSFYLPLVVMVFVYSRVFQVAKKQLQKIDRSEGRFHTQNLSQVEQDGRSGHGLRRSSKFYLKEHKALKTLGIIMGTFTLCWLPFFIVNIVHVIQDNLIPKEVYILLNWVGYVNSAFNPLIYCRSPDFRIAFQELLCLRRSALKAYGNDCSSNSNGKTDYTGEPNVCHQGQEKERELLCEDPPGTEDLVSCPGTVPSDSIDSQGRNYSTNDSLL
From the text: Concentration-response curves to isoproterenol were then obtained.

[1] = acute toxicity (LD50), intravenous, mice; conditions: mouse, in vivo; intravenous administration in mice
From the text: On the other hand, it was confirmed that the toxicity of the compounds of the present invention was very low. […] Therefore, the compounds of the present invention may be considered to be sufficiently safe and suitable for pharmaceutical use.

Row | Compound | Inhibitory effect after administration of compounds of the present invention (inhibition of isoproterenol-induced tachycardia), 10 min (β1 -receptor) [%] | Inhibitory effect after administration of compounds of the present invention (inhibition of isoproterenol-induced tachycardia), 20 min (β1 -receptor) [%] | Inhibitory effect after administration of compounds of the present invention (inhibition of isoproterenol-induced tachycardia), 30 min (β1 -receptor) [%] | Inhibitory effect after administration of compounds of the present invention (inhibition of isoproterenol-induced tachycardia), 35 min (β1 -receptor) [%] | Inhibitory effect after administration of compounds of the present invention (inhibition of isoproterenol-induced tachycardia), 40 min (β1 -receptor) [%] | Inhibitory effect after administration of compounds of the present invention (inhibition of isoproterenol-induced tachycardia), 50 min (β1 -receptor) [%] | Inhibitory effect after administration of compounds of the present invention (inhibition of isoproterenol-induced tachycardia), 60 min (β1 -receptor) [%] | Duration of action (β1 -receptor) [min] | Kb (β-receptor (trachea)) [µM] | LD50 [1] [mg/kg]
1 | CN1CCN(C(=O)NCCNC[C@H](O)COc2ccc(CCC(=O)OCC3COC(C)(C)O3)cc2)CC1 (stereo partly drawn) [3 (l), (2,2-dimethyl-1,3-dioxolan-4-yl)methyl 3-[4-[2S-hydroxy-3-[2-(4-methylpiperazin-1-yl)carbonylaminoethyl]aminopropoxy]phenyl]propionate 1/2 oxalate] | 60.2 | 58.6 | 59.8 | 55.6 | 41.8 | 19.6 | 16.3 | 15 |  | 
2 | CC1(C)OC[C@@H](COC(=O)CCc2ccc(OC[C@@H](O)CNCCNC(=O)N3CCOCC3)cc2)O1 [2 (b), (2,2-dimethyl-1,3-dioxolan-4S-yl)methyl 3-[4-[2S-hydroxy-3-(2-morpholinocarbonylaminoethyl)aminopropoxy]phenyl]propionate 1/2 oxalate] |  |  |  |  |  |  |  |  | 66.1 | 290
3 | O=C(CCc1ccc(OCC(O)CNCCNC(=O)N2CCOCC2)cc1)OCC1COC2(CCCC2)O1 (stereo not shown) [3 (c), (1,4-dioxaspiro[4,4]-nonan-2-yl)methyl 3-[4-[2-hydroxy-3-(2-morpholinocarbonylaminoethyl)aminopropoxy]phenyl]-ropionate 1/2 oxalate] | 38.3 | 46.9 | 40.4 | 37.0 | 20.1 | -2.6 | -1.3 | 10 |  | 
4 | CC1(C)OCC(COC(=O)CCc2ccc(OC[C@@H](O)CNCCNC(=O)N3CCOCC3)c(C#N)c2)O1 (stereo partly drawn) [3 (j), (2,2-dimethyl-1,3-dioxolan-4-yl)methyl 3-[3-cyano-4-[2S-hydroxy-3-(2-morpholinocarbonylaminoethyl)aminopropoxy]phenyl]propionate 1/2 oxalate] | 75.7 | 69.0 | 68.7 | 48.9 | 38.3 | 19.3 | 13.6 | 12 |  | 
5 | CC1(C)OCC(COC(=O)CCc2ccc(OC[C@@H](O)CNCCNC(=O)N3CCOCC3)c(F)c2)O1 (stereo partly drawn) [3 (e), (2,2-dimethyl-1,3-dioxolan-4-yl)methyl 3-[3-fluoro-4-[2S-hydroxy-3-(2-morpholinocarbonylaminoethyl)aminopropoxy]phenyl]propionate 1/2 oxalate] | 49.6 | 58.5 | 63.8 | 45.4 | 32.7 | 10.8 | -3.3 | 10 |  | 
